Here are results for 25 molecules from patent publication US11897868B2, “Heterocyclic inhibitors of PCSK9” (CARDIO THERAPEUTICS PTY LTD, priority 2017, dated 2024).

Molecules are shown by their SMILES.

This assay addresses T1, PCSK9 and the LDL receptor (Homo sapiens, UniProt Q8NBP7).
T1 construct: purchased CircuLex CY-8150
In words: CircuLex PCSK9-LDLR in vitro binding assay. To be noted: His-tagged PCSK9 wild type, 8 point concentration curves, absorbance 450 nm and 540 nm; for IC50: read-out: Inhibition of PCSK9-LDLR binding; for Inhibition of PCSK9-LDLR binding: IC50 curves. How it is done:
Compounds were assayed for their ability to inhibit the binding between PCSK9 and the LDL receptor using a CircuLex PCSK9-LDLR in vitro binding assay kit (Catalog #CY-8150. The procedure employed the reagents and buffers included in the kit as follows.
88 μL of 1× reaction buffer were placed into each well. 5 μL of test compounds in 20% DMSO were added into each well. 10 mM solutions of test compounds in DMSO were diluted by 3-fold series to give 8 point concentration curves. The compounds were then diluted 20-fold with the reaction buffer. To each well was then added 7 μL of His-tagged PCSK9 wild type solution (1000 ng/mL) into each well. The plate was then covered with a plate sealer and incubated at room temperature for 3 hours, shaking at 300 rpm on an orbital microplate shaker. The test solutions were washed 4 times with 350 μL wash buffer. 100 μL of biotinylated anti-His-tag monoclonal antibody was added to each well. The plate was covered with a plate sealer, and incubated at room temperature for 1 hour, shaking at 300 rpm. The test solutions were washed 4 times with 350 μL wash buffer. 100 μL of HRP-conjugated streptavidin was added to each well. The plate was covered with a plate sealer, and incubated at room temperature for 20 min, shaking at 300 rpm.
The test solutions were washed 4 times with 350 μL wash buffer. 100 μL of substrate reagent were added into each well. The plate was covered with a plate sealer, and incubated at room temperature for 15 min, shaking at 300 rpm. Finally, 100 μL of the stop solution was added to each well in the same order as the previously added substrate reagent. Absorbance was measured at 450 nm and 540 nm and IC50 curves were plotted.

T1 sequence (Q8NBP7 153-692): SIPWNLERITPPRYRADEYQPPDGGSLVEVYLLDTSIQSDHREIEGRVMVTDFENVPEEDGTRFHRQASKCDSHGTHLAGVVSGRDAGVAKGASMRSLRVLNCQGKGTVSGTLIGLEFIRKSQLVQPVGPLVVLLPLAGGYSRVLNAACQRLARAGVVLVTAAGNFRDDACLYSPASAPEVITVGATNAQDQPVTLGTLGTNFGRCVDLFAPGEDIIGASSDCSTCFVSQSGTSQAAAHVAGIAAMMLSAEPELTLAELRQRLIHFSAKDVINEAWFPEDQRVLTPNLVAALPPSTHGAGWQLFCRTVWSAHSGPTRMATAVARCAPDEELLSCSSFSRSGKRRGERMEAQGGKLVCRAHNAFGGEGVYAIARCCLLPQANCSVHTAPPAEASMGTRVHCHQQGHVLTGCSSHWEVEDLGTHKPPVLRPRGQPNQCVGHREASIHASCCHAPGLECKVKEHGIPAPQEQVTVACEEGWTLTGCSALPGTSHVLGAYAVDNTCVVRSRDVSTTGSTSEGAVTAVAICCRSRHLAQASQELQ
T1 sequence (Q8NBP7 31-152 partner limits assumed): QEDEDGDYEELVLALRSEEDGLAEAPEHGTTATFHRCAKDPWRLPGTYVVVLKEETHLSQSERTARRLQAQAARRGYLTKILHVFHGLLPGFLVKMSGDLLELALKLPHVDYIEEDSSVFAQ

With `Cc1cn(-c2cc(NC(=O)c3ccc(C)c(Nc4nccc(-c5ccccn5)n4)c3)cc(C(F)(F)F)c2)cn1` [Example 1, 4-methyl-N-(3-(4-methyl-1H-imidazol-1-yl)-5-(trifluoromethyl)phenyl)-3-((4-(pyridin-2-yl)pyrimidin-2-yl)amino)benzamide], the IC50 fell in the range of 10 to 100 µM.

As to `Cc1cn(-c2cc(NC(=O)c3ccc(C)c(Nc4nccc(-c5ccncc5)n4)c3)cc(C(F)(F)F)c2)cn1` [Example 2, 4-methyl-N-(3-(4-methyl-1H-imidazol-1-yl)-5-(trifluoromethyl)phenyl)-3-((4-(pyridin-4-yl)pyrimidin-2-yl)amino)benzamide], the IC50 lay in the range of 1 to 10 µM.

With `Cc1cn(-c2cc(NC(=O)c3ccc(C)c(Nc4nccc(-c5ccccc5)n4)c3)cc(C(F)(F)F)c2)cn1` [Example 3, 4-methyl-N-(3-(4-methyl-1H-imidazol-1-yl)-5-(trifluoromethyl)phenyl)-3-((4-phenylpyrimidin-2-yl)amino)benzamide], the IC50 was in the range of 1 to 10 µM.

`Cc1cn(-c2cc(NC(=O)c3ccc(C)c(Nc4ncccn4)c3)cc(C(F)(F)F)c2)cn1` [Example 4, 4-methyl-N-(3-(4-methyl-1H-imidazol-1-yl)-5-(trifluoromethyl)phenyl)-3-(pyrimidin-2-ylamino)benzamide]: the IC50 is 10 to 100 µM.

As for `Cc1cn(-c2cc(NC(=O)c3ccc(C)c(Nc4nccc(-c5ccccc5)n4)c3)cc(N3CCNCC3)c2)cn1` [Example 5, 4-methyl-N-(3-(4-methyl-1H-imidazol-1-yl)-5-(piperazin-1-yl)phenyl)-3-((4-phenylpyrimidin-2-yl)amino)benzamide], the IC50 is 0.1 to 1 µM.

As for `Cc1cn(-c2cc(NC(=O)c3ccc(C)c(Nc4nccc(-c5ccccc5)n4)c3)cc(N3CCN(C)CC3)c2)cn1` [Example 6, 4-methyl-N-(3-(4-methyl-1H-imidazol-1-yl)-5-(4-methylpiperazin-1-yl)phenyl)-3-((4-phenylpyrimidin-2-yl)amino)benzamide], the IC50 lay in the range of 0.1 to 1 µM.

Take `Cc1cn(-c2cc(CN3CCN(C)CC3)cc(NC(=O)c3ccc(C)c(Nc4nccc(-c5ccccc5)n4)c3)c2)cn1` [Example 7, 4-methyl-N-(3-(4-methyl-1H-imidazol-1-yl)-5-((4-methylpiperazin-1-yl)methyl)phenyl)-3-((4-phenylpyrimidin-2-yl)amino)benzamide]: the IC50 was 0.1 to 1 µM.

For the molecule `Cc1cn(-c2cc(/C=C/C(=O)O)cc(NC(=O)c3ccc(C)c(Nc4nccc(-c5ccccc5)n4)c3)c2)cn1` [Example 8, (E)-3-(3-(4-methyl-1H-imidazol-1-yl)-5-(4-methyl-3-((4-phenylpyrimidin-2-yl)amino)benzamido)phenyl)acrylic Acid], the IC50 was in the range of 10 to 100 µM.

As for `Cc1cn(-c2cc(CCC(=O)O)cc(NC(=O)c3ccc(C)c(Nc4nccc(-c5ccccc5)n4)c3)c2)cn1` [Example 9, 3-(3-(4-methyl-1H-imidazol-1-yl)-5-(4-methyl-3-((4-phenylpyrimidin-2-yl)amino)benzamido)phenyl)propanoic Acid], the IC50 lay in the range of 1 to 10 µM.

In the case of `Cc1cn(-c2cc(CCS(N)(=O)=O)cc(NC(=O)c3ccc(C)c(Nc4nccc(-c5ccccc5)n4)c3)c2)cn1` [Example 10, 4-methyl-N-(3-(4-methyl-1H-imidazol-1-yl)-5-(2-sulfamoylethyl)phenyl)-3-((4-phenylpyrimidin-2-yl)amino)benzamide], the IC50 lay in the range of 10 to 100 µM.

Turning to `CCCCc1cc(NC(=O)c2ccc(C)c(Nc3nccc(-c4ccccc4)n3)c2)cc(-n2cnc(C)c2)c1` [Example 11, N-(3-butyl-5-(4-methyl-1H-imidazol-1-yl)phenyl)-4-methyl-3-((4-phenylpyrimidin-2-yl)amino)benzamide], the IC50 lay within 1 to 10 µM.

Take `Cc1ccc(C(=O)Nc2cc(-n3cnc(C)c3)cc(C(F)(F)F)c2)cc1` [Example 12, 4-methyl-N-(3-(4-methyl-1H-imidazol-1-yl)-5-(trifluoromethyl)phenyl)benzamide]: the IC50 lay in the range of 10 to 100 µM.

For `Cc1cn(-c2cc(NC(=O)c3ccc(C)c(Oc4ccccc4)c3)cc(C(F)(F)F)c2)cn1` [Example 13, 4-methyl-N-(3-(4-methyl-1H-imidazol-1-yl)-5-(trifluoromethyl)phenyl)-3-phenoxybenzamide], the IC50 is 10 to 100 µM.

For the molecule `Cc1cn(-c2cc(NC(=O)c3ccc(C)c(OCc4ccccc4)c3)cc(C(F)(F)F)c2)cn1` [Example 14, 3-(benzyloxy)-4-methyl-N-(3-(4-methyl-1H-imidazol-1-yl)-5-(trifluoromethyl)phenyl)benzamide], the IC50 is 10 to 100 µM.

For `Cc1cn(-c2cc(NS(=O)(=O)c3ccc(C)c(Nc4nccc(-c5ccccc5)n4)c3)cc(C(F)(F)F)c2)cn1` [Example 15, 4-methyl-N-(3-(4-methyl-1H-imidazol-1-yl)-5-(trifluoromethyl)phenyl)-3-((4-phenylpyrimidin-2-yl)amino)benzenesulfonamide], the IC50 lay in the range of 10 to 100 µM.

With `CC(=O)Nc1ccnc(Nc2cc(C(=O)Nc3cc(-n4cnc(C)c4)cc(C(F)(F)F)c3)ccc2C)n1` [Example 16, 3-((4-acetamidopyrimidin-2-yl)amino)-4-methyl-N-(3-(4-methyl-1H-imidazol-1-yl)-5-(trifluoromethyl)phenyl)benzamide], the IC50 lay in the range of 10 to 100 µM.

In the case of `Cc1ccc(C(=O)Nc2cccc(C(F)(F)F)c2)cc1Nc1nccc(-c2cccnc2)n1` [Example 17, 4-methyl-3-((4-(pyridin-3-yl)pyrimidin-2-yl)amino)-N-(3-(trifluoromethyl)phenyl)benzamide], the IC50 was > 100 µM.

As to `Cc1cn(-c2cc(N3C(=O)c4cc(C)c(Nc5nccc(-c6cccnc6)n5)cc4C3=O)cc(C(F)(F)F)c2)cn1` [Example 18, 5-methyl-2-(3-(4-methyl-1H-imidazol-1-yl)-5-(trifluoromethyl)phenyl)-6-((4-(pyridin-3-yl)pyrimidin-2-yl)amino)isoindoline-1,3-dione], the IC50 was 1 to 10 µM.

In the case of `Cc1cn(-c2cc(CN3CCC[C@H](N)C3)cc(NC(=O)c3ccc(C)c(Nc4nccc(-c5ccc(F)cc5)n4)c3)c2)cn1` [Example 19, (S)—N-(3-((3-aminopiperidin-1-yl)methyl)-5-(4-methyl-1H-imidazol-1-yl)phenyl)-3-((4-(4-fluorophenyl)pyrimidin-2-yl)amino)-4-methylbenzamide], the IC50 fell in the range of 0.1 to 1 µM.

Turning to `Cc1cn(-c2cc(CN3CCCC[C@H]3C(=O)O)cc(NC(=O)c3ccc(C)c(Nc4nccc(-c5ccc(F)cc5)n4)c3)c2)cn1` [Example 20, (S)-1-(3-(3-((4-(4-fluorophenyl)pyrimidin-2-yl)amino)-4-methylbenzamido)-5-(4-methyl-1H-imidazol-1-yl)benzyl)piperidine-2-carboxylic Acid], the IC50 is 10 to 100 µM.

On to `Cc1cn(-c2cc(CN3CCCC[C@H]3C(N)=O)cc(NC(=O)c3ccc(C)c(Nc4nccc(-c5ccc(F)cc5)n4)c3)c2)cn1` [Example 21, (S)-1-(3-(3-((4-(4-fluorophenyl)pyrimidin-2-yl)amino)-4-methylbenzamido)-5-(4-methyl-1H-imidazol-1-yl)benzyl)piperidine-2-carboxamide], for which the IC50 lay in the range of 1 to 10 µM.

As for `Cc1cn(-c2cc(NS(=O)(=O)c3ccc(C)c(Nc4nccc(-c5ccc(F)cc5)n4)c3)cc(N3CCN(C)CC3)c2)cn1` [Example 22, 3-((4-(4-fluorophenyl)pyrimidin-2-yl)amino)-4-methyl-N-(3-(4-methyl-1H-imidazol-1-yl)-5-(4-methylpiperazin-1-yl)phenyl)benzenesulfonamide], the “Inhibition of PCSK9-LDLR binding” value was “* (Starred values refer to levels of inhibition of binding by less than 35% at the highest concentration tested, due either to solubility limitations or dynamic range limitations of the assay.)”.

In the case of `Cc1cn(-c2cc(NC(=O)c3ccc(C)c(Nc4nccc(-c5ccc(F)cc5)n4)c3)cc(N3CCOCC3)c2)cn1` [Example 23, 3-((4-(4-fluorophenyl)pyrimidin-2-yl)amino)-4-methyl-N-(3-(4-methyl-1H-imidazol-1-yl)-5-morpholinophenyl)benzamide], the IC50 was in the range of 10 to 100 µM.

Turning to `Cc1ccc(C(=O)Nc2cc(N3CCN(C)CC3)cc(-n3cnc(C)c3)c2)cc1` [Example 24, 4-methyl-N-(3-(4-methyl-1H-imidazol-1-yl)-5-(4-methylpiperazin-1-yl)phenyl)benzamide], the IC50 fell in the range of 10 to 100 µM.

Regarding `Cc1cn(-c2cc(NC(=O)c3ccc(C)c(Oc4ccccc4)c3)cc(N3CCN(C)CC3)c2)cn1` [Example 25, 4-methyl-N-(3-(4-methyl-1H-imidazol-1-yl)-5-(4-methylpiperazin-1-yl)phenyl)-3-phenoxybenzamide], the “Inhibition of PCSK9-LDLR binding” value was “* (Starred values refer to levels of inhibition of binding by less than 35% at the highest concentration tested, due either to solubility limitations or dynamic range limitations of the assay.)”.
